Patent US11331327B2, “Antibacterial use of halogenated salicylanilides” (UNION therapeutics A/S, priority 2014, dated 2022)
Like-named read-outs stand apart in the source and are kept apart here.

Test system: S. aureus clinical isolates and S. aureus ATCC 29213
Assay: MIC assay according to CLSI criteria, Example 2, S. aureus strains
Assay type: cell-based, Staphylococcus aureus
Details: Staphylococcus aureus, read-out: MIC
Protocol: Strains were conserved in Luria Bertani (LB) Broth (S. aureus) or Brain Heart Infusion (BHI) (S. pyogenes) supplemented with glycerol 15% (v/v) at −80° C., and reactivated by isolation on LB (S. aureus) or BHI (S. pyogenes) agar plates. Strains were cultivated in Mueller Hinton (MH) Broth-cation adjusted (S. aureus) or BHI (S. pyogenes). All strains were cultivated aerobically (microaerobically for S. pyogenes strains) at 37° C.
Bacterial cultures were stopped in their exponential growth phase and plates were inoculated with the approximate concentration of 5×10^5 cells per well. Plates were incubated at 37° C. for 18 hours (S. aureus) or 24 hours (S. pyogenes).

Measured: MIC

CC(=O)O[C@H]1C[C@@]2(C)[C@@H](C[C@@H](O)[C@H]3[C@@]4(C)CC[C@@H](O)[C@@H](C)[C@@H]4CC[C@@]32C)/C1=C(\CCC=C(C)C)C(=O)O [Fusidic acid]
0.03 µg/mL: ATCC29213, strain E5-1033091
4 µg/mL: ATCC29213, strain E5-1038279 | ATCC29213, strain EEFIC 01 | ATCC29213, strain EEFIC 02 | ATCC 29213 / MRSA, strain MRSA 12 | ATCC 29213 / MRSA, strain MRSA 13
0.06 µg/mL: ATCC29213, strain ATCC 29213
0.5 µg/mL: ATCC29213, strain 000274T | ATCC29213, strain 115370U | ATCC29213, strain E5-1039697 | ATCC29213, strain E5-1046096 | ATCC29213, strain E5-1046723 | ATCC29213, strain E5-1048428 | ATCC29213, strain E5-1048654 | ATCC29213, strain E5-1048670 | ATCC 29213 / MRSA, strain MRSA 02
> 16 µg/mL: ATCC29213, strain E5-1035775 | ATCC29213, strain K000772 | ATCC 29213 / MRSA, strain MRSA 14
8 µg/mL: ATCC29213, strain 9-26422166 | ATCC29213, strain 115242C | ATCC29213, strain 115628T | ATCC29213, strain 115690C | ATCC29213, strain 115903T | ATCC29213, strain E5-1046085 | ATCC29213, strain E5-1047606 | ATCC29213, strain K000796 | ATCC29213, strain K000866
16 µg/mL: ATCC29213, strain E5-1029558 | ATCC29213, strain E5-1030482 | ATCC29213, strain E5-1035277 | ATCC29213, strain E5-1037958 | ATCC29213, strain E5-1039684 | ATCC29213, strain E5-1041977 | ATCC29213, strain E5-1041987 | ATCC29213, strain E5-1043184 | ATCC29213, strain R000024 | ATCC 29213 / MRSA, strain MRSA 03
0.25 µg/mL: ATCC29213, strain 9-2625962 | ATCC29213, strain 9-2642158 | ATCC29213, strain 9-2955245 | ATCC29213, strain 000040C | ATCC29213, strain 000041C | ATCC29213, strain 114660U | ATCC29213, strain 115015T | ATCC29213, strain 115268C | ATCC29213, strain 115273C | ATCC29213, strain 115303C | ATCC29213, strain 115445C | ATCC29213, strain 115584D | ATCC29213, strain 115691T | ATCC29213, strain 115740E | ATCC29213, strain 115810E | ATCC29213, strain E5-1029252 | ATCC29213, strain E5-1030440 | ATCC29213, strain E5-1030472 | ATCC29213, strain E5-1033076 (first line, r202) | ATCC29213, strain E5-1033076 (second line, r203) | ATCC29213, strain E5-1033088 | ATCC29213, strain E5-1035284 | ATCC29213, strain E5-1037971 | ATCC29213, strain E5-1038286 | ATCC29213, strain E5-1038294 | ATCC29213, strain E5-1041979 | ATCC29213, strain E5-1041980 | ATCC29213, strain E5-1045179 | ATCC29213, strain E5-1046019 | ATCC29213, strain E5-1046020 | ATCC29213, strain E5-1046039 | ATCC29213, strain E5-1046070 | ATCC29213, strain E5-1047585 | ATCC29213, strain E5-1047924 | ATCC29213, strain E5-1048204 | ATCC29213, strain K000864 | ATCC29213, strain U115579 | ATCC 29213 / MRSA, strain MRSA 04 | ATCC 29213 / MRSA, strain MRSA 07 | ATCC 29213 / MRSA, strain MRSA 09
0.125 µg/mL: ATCC29213, strain 9-1862936 | ATCC29213, strain 115263C | ATCC29213, strain 115295C | ATCC29213, strain 115427C | ATCC29213, strain 115561C | ATCC29213, strain 116122T | ATCC29213, strain E5-1030469 | ATCC29213, strain E5-1035779 | ATCC29213, strain E5-1046074 | ATCC29213, strain E5-1046296 | ATCC29213, strain E5-1046297 | ATCC29213, strain E5-1046298 | ATCC29213, strain K115498 | ATCC29213, strain K115688 | ATCC29213, strain K115689 | ATCC29213, strain R000019 | ATCC29213, strain R000020 | ATCC 29213 / MRSA, strain MRSA 01 | ATCC 29213 / MRSA, strain MRSA 05 | ATCC 29213 / MRSA, strain MRSA 06 | ATCC 29213 / MRSA, strain MRSA 08
1 µg/mL: ATCC29213, strain E5-1043668 | ATCC29213, strain K000863 | ATCC 29213 / MRSA, strain MRSA 10 | ATCC 29213 / MRSA, strain MRSA 11
